Test results reported in patent US11414416B1, “Compounds and uses thereof” (Foghorn Therapeutics Inc., priority 2019, dated 2022).

Assays:
BRD9 bromodomain = BRD9 bromodomain (Homo sapiens (Human), UniProt Q9H8M2); assay: BRD9 bromodomain TR-FRET competition binding assay; conditions: Table 4; competition with biotinylated ligand, 3 nM Flag-BRD9, 90 minutes
Method in brief: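 TEV-cleaved Flag-BRD9 (P133-K239, 3 nM) competed against 3.75 nM biotinylated ligand, with 7.5 nM APC-streptavidin and 0.2 nM Eu-W1024 anti-FLAG, in HEPES pH 7.4, NaCl, TCEP, Tween-20, BSA. Compounds were serially diluted 3-fold; after 90 min at room temperature the 665/615 nm emission ratio was read.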

[1] = biological target: Nanoluciferase-BRD9 fusion protein (Homo sapiens (Human), UniProt Q9H8M2); assay: SYO1 BRD9 NanoLuc degradation assay; assay type: cell-based; conditions: Table 5A, SYO-1 cells expressing 3×FLAG-NLuc-BRD9, 6 hours; for DC50: read-out: SYO1 BRD9-NanoLuc degradation IC50
Method in brief: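 Degradation was read as loss of nanoluciferase signal (Nano-Glo) after 6 h compound exposure in a stable SYO-1 line carrying 3×FLAG-NLuc-BRD9 (8000 cells/well). Normalised between DMSO (high) and a 1 μM known BRD9 degrader (low).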

Nanoluciferase-BRD9 fusion protein, sequence (Q9H8M2 whole entry, the tested form may be a part): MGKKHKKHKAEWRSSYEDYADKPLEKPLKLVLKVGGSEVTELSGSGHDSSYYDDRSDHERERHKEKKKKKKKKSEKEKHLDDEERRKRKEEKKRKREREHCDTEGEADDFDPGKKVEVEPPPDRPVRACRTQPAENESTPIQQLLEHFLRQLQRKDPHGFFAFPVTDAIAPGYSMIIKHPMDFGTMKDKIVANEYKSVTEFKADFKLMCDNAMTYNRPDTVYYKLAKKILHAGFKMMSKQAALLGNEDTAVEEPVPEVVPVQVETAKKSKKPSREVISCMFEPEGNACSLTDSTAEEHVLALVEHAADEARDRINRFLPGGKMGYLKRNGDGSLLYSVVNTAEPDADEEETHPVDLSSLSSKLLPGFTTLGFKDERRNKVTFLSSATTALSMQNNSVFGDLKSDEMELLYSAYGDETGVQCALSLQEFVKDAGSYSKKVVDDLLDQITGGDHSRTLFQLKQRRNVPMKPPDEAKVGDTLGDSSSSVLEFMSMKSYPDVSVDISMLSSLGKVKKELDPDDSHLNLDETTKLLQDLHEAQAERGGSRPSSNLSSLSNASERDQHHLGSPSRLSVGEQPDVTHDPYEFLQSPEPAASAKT
BRD9 bromodomain, sequence (Q9H8M2 133-239): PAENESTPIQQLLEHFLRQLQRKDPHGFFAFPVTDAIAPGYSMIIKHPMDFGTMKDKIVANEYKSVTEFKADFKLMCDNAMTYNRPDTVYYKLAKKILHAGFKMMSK

IC50 (BRD9 bromodomain) [µM] | IC50 [1] [µM] | DC50 [1] [µM] | SMILES
0.01 to 0.1 | 0.01 to 0.1 |  | COc1cc(-c2cn(C)c(=O)c3cnccc23)cc(OC)c1CN1CCC2CCN(C(=O)CCOCCOc3cccc4c3C(=O)N(C3CCC(=O)NC3=O)C4=O)CC21 (stereo not shown) [Compound D91]
< 0.01 |  | 0.01 to 0.1 | COc1cc(-c2cn(C)c(=O)c3cnccc23)cc(OC)c1CN1CC2(CC(NC(=O)CCOCCOc3cccc4c3C(=O)N(C3CCC(=O)NC3=O)C4=O)C2)C1 (stereo not shown) [Compound D93]
0.01 to 0.1 | 0.1 to 1 |  | COc1cc(-c2cn(C)c(=O)c3cnccc23)cc(OC)c1CN1CCC12CCN(C(=O)CCOCCOc1cccc3c1C(=O)N(C1CCC(=O)NC1=O)C3=O)C2 (stereo not shown) [Compound D95]
< 0.01 |  | 0.01 to 0.1 | COc1cc(-c2cn(C)c(=O)c3cnccc23)cc(OC)c1CN1CCC(C2CCN(C(=O)CCOCCOc3cccc4c3C(=O)N(C3CCC(=O)NC3=O)C4=O)C2)CC1 (stereo not shown) [Compound D96]
< 0.01 |  | 0.01 to 0.1 | COc1cc(-c2cn(C)c(=O)c3cnccc23)cc(OC)c1CN1CCC(OC2CCN(C(=O)CCOCCOc3cccc4c3C(=O)N(C3CCC(=O)NC3=O)C4=O)CC2)CC1 (stereo not shown) [Compound D97]
0.1 to 1 | 0.1 to 1 |  | COc1cc(-c2cn(C)c(=O)c3cnccc23)cc(OC)c1CN1CCC12CN(C(=O)CCOCCOc1ccc3c(c1)C(=O)N(C1CCC(=O)NC1=O)C3=O)C2 (stereo not shown) [Compound D98]
0.01 to 0.1 | 0.01 to 0.1 |  | COc1cc(-c2cn(C)c(=O)c3cnccc23)cc(OC)c1CN1CCC2(C1)CN(C(=O)CCOCCOc1ccc3c(c1)C(=O)N(C1CCC(=O)NC1=O)C3=O)C2 (stereo not shown) [Compound D99]
< 0.01 | < 0.01 |  | COc1cc(-c2cn(C)c(=O)c3cnccc23)cc(OC)c1CN1CC2CN(C(=O)CCOCCOc3ccc4c(c3)C(=O)N(C3CCC(=O)NC3=O)C4=O)CCC21 (stereo not shown) [Compound D100]
< 0.01 |  | 0.1 to 1 | COc1cc(-c2cn(C)c(=O)c3cnccc23)cc(OC)c1CN1CC2(CC(NC(=O)CCOCCOc3ccc4c(c3)C(=O)N(C3CCC(=O)NC3=O)C4=O)C2)C1 (stereo not shown) [Compound D101]
< 0.01 | < 0.01 |  | COc1cc(-c2cn(C)c(=O)c3cnccc23)cc(OC)c1CN1CCC2(CCN(C(=O)CCOCCOc3cccc4c3C(=O)N(C3CCC(=O)NC3=O)C4=O)C2)C1 (stereo not shown) [Compound D108]
< 0.01 |  | 0.01 to 0.1 | COc1cc(-c2cn(C)c(=O)c3cnccc23)cc(OC)c1CN(C)CC1CC2(CCN(C(=O)CCOCCOc3cccc4c3C(=O)N(C3CCC(=O)NC3=O)C4=O)CC2)CO1 (stereo not shown) [Compound D109]
0.01 to 0.1 | 0.01 to 0.1 |  | COc1cc(-c2cn(C)c(=O)c3cnccc23)cc(OC)c1CN(C)C1CCC12CCN(C(=O)CCOCCOc1cccc3c1C(=O)N(C1CCC(=O)NC1=O)C3=O)CC2 (stereo not shown) [Compound D110]
< 0.01 |  | 0.01 to 0.1 | COc1cc(-c2cn(C)c(=O)c3cnccc23)cc(OC)c1CN1CCC2(C[C@H]2NC(=O)CCOCCOc2cccc3c2C(=O)N(C2CCC(=O)NC2=O)C3=O)C1 (stereo partly shown) [Compound D111]
< 0.01 |  | 0.1 to 1 | COc1cc(-c2cn(C)c(=O)c3cnccc23)cc(OC)c1CN1CCC2(C[C@@H]2NC(=O)CCOCCOc2cccc3c2C(=O)N(C2CCC(=O)NC2=O)C3=O)C1 (stereo partly shown) [Compound D112]
< 0.01 | < 0.01 |  | COc1cc(-c2cn(C)c(=O)c3cnccc23)cc(OC)c1CN1CC2C1CCN2C(=O)CCOCCOc1cccc2c1C(=O)N(C1CCC(=O)NC1=O)C2=O (stereo not shown) [Compound D113]
< 0.01 |  | 0.01 to 0.1 | COc1cc(-c2cn(C)c(=O)c3cnccc23)cc(OC)c1CN1CCC(OC2CCN(C(=O)CCOCCOc3cccc4c3C(=O)N(C3CCC(=O)NC3=O)C4=O)C2)CC1 (stereo not shown) [Compound D114]
0.01 to 0.1 | 0.1 to 1 |  | COc1cc(-c2cn(C)c(=O)c3cnccc23)cc(OC)c1CN1CC2(CCC2NC(=O)CCOCCOc2ccc3c(c2)C(=O)N(C2CCC(=O)NC2=O)C3=O)C1 (stereo not shown) [Compound D115]
< 0.01 |  | 0.01 to 0.1 | COc1cc(-c2cn(C)c(=O)c3cnccc23)cc(OC)c1CN1CCC2(CC1)CC(NC(=O)CCOCCOc1ccc3c(c1)C(=O)N(C1CCC(=O)NC1=O)C3=O)C2 (stereo not shown) [Compound D116]
< 0.01 |  | 0.1 to 1 | COc1cc(-c2cn(C)c(=O)c3cnccc23)cc(OC)c1CN1CC(CCNC(=O)CCOCCOc2ccc3c(c2)C(=O)N(C2CCC(=O)NC2=O)C3=O)C1 (stereo not shown) [Compound D117]
< 0.01 |  | 0.01 to 0.1 | COc1cc(-c2cn(C)c(=O)c3cnccc23)cc(OC)c1CN1CC2(CCN(C(=O)CCOCCOc3ccc4c(c3)C(=O)N(C3CCC(=O)NC3=O)C4=O)CC2)C1 (stereo not shown) [Compound D118]
< 0.01 |  | 0.01 to 0.1 | COc1cc(-c2cn(C)c(=O)c3cnccc23)cc(OC)c1CN1CCC2(CC1)CN(C(=O)CCOCCOc1ccc3c(c1)C(=O)N(C1CCC(=O)NC1=O)C3=O)C2 (stereo not shown) [Compound D119]

IC50 (BRD9 bromodomain) [µM] | IC50 [1] [µM] | DC50 [1] [µM] | SMILES
0.01 to 0.1 | 0.01 to 0.1 |  | COc1cc(-c2cn(C)c(=O)c3cnccc23)cc(OC)c1CN1CCC2(CCN(C(=O)CCOCCOc3ccc4c(c3)C(=O)N(C3CCC(=O)NC3=O)C4=O)CC2)C1 (stereo not shown) [Compound D120]
0.01 to 0.1 | 0.01 to 0.1 |  | COc1cc(-c2cn(C)c(=O)c3cnccc23)cc(OC)c1CN1CCC2(CCN(C(=O)CCOCCOc3ccc4c(c3)C(=O)N(C3CCC(=O)NC3=O)C4=O)C2)C1 (stereo not shown) [Compound D121]
< 0.01 | < 0.01 |  | COc1cc(-c2cn(C)c(=O)c3cnccc23)cc(OC)c1CN1CC2(CCN(C(=O)CCOCCOc3ccc4c(c3)C(=O)N(C3CCC(=O)NC3=O)C4=O)C2)C1 (stereo not shown) [Compound D122]
< 0.01 | < 0.01 |  | COc1cc(-c2cn(C)c(=O)c3cnccc23)cc(OC)c1CN1CCC2CCN(C(=O)CCOCCOc3ccc4c(c3)C(=O)N(C3CCC(=O)NC3=O)C4=O)CC21 (stereo not shown) [Compound D123]
< 0.01 | < 0.01 |  | COc1cc(-c2cn(C)c(=O)c3cnccc23)cc(OC)c1CN1CCC(COC2CCN(C(=O)CCOCCOc3ccc4c(c3)C(=O)N(C3CCC(=O)NC3=O)C4=O)C2)CC1 (stereo not shown) [Compound D124]
< 0.01 |  | 0.01 to 0.1 | COc1cc(-c2cn(C)c(=O)c3cnccc23)cc(OC)c1CN1CCC2(C[C@@H]2NC(=O)CCOCCOc2ccc3c(c2)C(=O)N(C2CCC(=O)NC2=O)C3=O)C1 (stereo partly shown) [Compound D125]
0.01 to 0.1 | 0.1 to 1 |  | COc1cc(-c2cn(C)c(=O)c3cnccc23)cc(OC)c1CN1CCC2(C[C@H]2NC(=O)CCOCCOc2ccc3c(c2)C(=O)N(C2CCC(=O)NC2=O)C3=O)C1 (stereo partly shown) [Compound D126]
< 0.01 |  | 0.1 to 1 | COc1cc(-c2cn(C)c(=O)c3cnccc23)cc(OC)c1CN1CCC12CCN(C(=O)CCOCCOc1ccc3c(c1)C(=O)N(C1CCC(=O)NC1=O)C3=O)C2 (stereo not shown) [Compound D127]
0.01 to 0.1 | < 0.01 |  | COc1cc(-c2cn(C)c(=O)c3cnccc23)cc(OC)c1CN1CC2C1CCN2C(=O)CCOCCOc1ccc2c(c1)C(=O)N(C1CCC(=O)NC1=O)C2=O (stereo not shown) [Compound D128]
< 0.01 | < 0.01 |  | COc1cc(-c2cn(C)c(=O)c3cnccc23)cc(OC)c1CN1CCC(C2CCN(C(=O)CCOCCOc3ccc4c(c3)C(=O)N(C3CCC(=O)NC3=O)C4=O)C2)CC1 (stereo not shown) [Compound D129]
< 0.01 | < 0.01 |  | COc1cc(-c2cn(C)c(=O)c3cnccc23)cc(OC)c1CN1CCC(OC2CCN(C(=O)CCOCCOc3ccc4c(c3)C(=O)N(C3CCC(=O)NC3=O)C4=O)C2)CC1 (stereo not shown) [Compound D130]
< 0.01 | < 0.01 |  | COc1cc(-c2cn(C)c(=O)c3cnccc23)cc(OC)c1CN1CCC(OC2CCN(C(=O)CCOCCOc3ccc4c(c3)C(=O)N(C3CCC(=O)NC3=O)C4=O)CC2)CC1 (stereo not shown) [Compound D131]
< 0.01 |  | 0.01 to 0.1 | COc1cc(-c2cn(C)c(=O)c3cnccc23)cc(OC)c1CN1CCCC(OCc2cn(CCCOc3ccc4c(c3)C(=O)N(C3CCC(=O)NC3=O)C4=O)nn2)C1 (stereo not shown) [Compound D151]
< 0.01 |  | 0.01 to 0.1 | COc1cc(-c2cn(C)c(=O)c3cnccc23)cc(OC)c1CN(C)CC1CC2(CCN(C(=O)CCOCCOc3cccc4c3C(=O)N(C3CCC(=O)NC3=O)C4=O)CC2)O1 (stereo not shown) [Compound D159]
< 0.01 |  | 0.01 to 0.1 | COc1cc(-c2cn(C)c(=O)c3cnccc23)cc(OC)c1CN(C)C1CC2CN(C(=O)CCOCCOc3cccc4c3C(=O)N(C3CCC(=O)NC3=O)C4=O)CC2C1 (stereo not shown) [Compound D160]
< 0.01 |  | 0.01 to 0.1 | COc1cc(-c2cn(C)c(=O)c3cnccc23)cc(OC)c1CN(C)C1CCC2CN(C(=O)CCOCCOc3cccc4c3C(=O)N(C3CCC(=O)NC3=O)C4=O)CC21 (stereo not shown) [Compound D161]
0.01 to 0.1 | 0.01 to 0.1 |  | COc1cc(-c2cn(C)c(=O)c3cnccc23)cc(OC)c1CN(C)C1CC2CC1CN2C(=O)CCOCCOc1cccc2c1C(=O)N(C1CCC(=O)NC1=O)C2=O (stereo not shown) [Compound D162]
< 0.01 |  | 0.01 to 0.1 | COc1cc(-c2cn(C)c(=O)c3cnccc23)cc(OC)c1CN(C)CC1CC12CCN(C(=O)CCOCCOc1cccc3c1C(=O)N(C1CCC(=O)NC1=O)C3=O)CC2 (stereo not shown) [Compound D163]
< 0.01 |  | 0.01 to 0.1 | COc1cc(-c2cn(C)c(=O)c3cnccc23)cc(OC)c1CN(C)CC1CC2(C1)CN(C(=O)CCOCCOc1cccc3c1C(=O)N(C1CCC(=O)NC1=O)C3=O)C2 (stereo not shown) [Compound D164]
0.01 to 0.1 | 0.01 to 0.1 |  | COc1cc(-c2cn(C)c(=O)c3cnccc23)cc(OC)c1CN(C)CC1CC2(CCN(C(=O)CCOCCOc3cccc4c3C(=O)N(C3CCC(=O)NC3=O)C4=O)CC2)C1 (stereo not shown) [Compound D165]
